The source of these data is PMC11359531, “Establishment of Dissolution Test Method for Multi-Components in Traditional Chinese Medicine Preparations Based on In Vitro–In Vivo Correlation” (Pharmaceuticals, 2024).

Like-named read-outs stand apart in the source and are kept apart here.

The nature of data set [1]: Dissolution test of Q-markers in YZTs, paddle method, and fitting of dissolution profiles. Type of data set: physicochemical. As to conditions: for Best-fitted dissolution model, Functions: YZTs, 75 rpm. As for the experimental part:
The dissolution of five Q-markers in YZTs was evaluated using the paddle method in accordance with the Chinese Pharmacopoeia. […] The dissolution tests were conducted at a temperature of 37 ± 0.5 °C and a paddle speed of 75 rpm. Add 6 tablets to each dissolving cup, accompanied by 900 mL of dissolving solution, in 6 parallel aliquots, and samples of 3 mL were collected at 15, 30, 45, 60, 90, 120, 180, 240, and 360 min, respectively. Taking into account the gastric emptying time, the end time of dissolution measurement was 180 min when taking 0.1 M of HCl as dissolution medium. The dissolution medium was replenished after each sampling. The samples were filtered through 0.22 μm membrane and analyzed using the HPLC method described in Section 3.2. The chromatographic results were processed to calculate the concentration of each component at different time points, and the dissolution results were calculated using Equation (3) as follows:(3) D=(CnV1+V2∑i=1n−1Cn−1)×100%/M
Cn is the drug concentration at time point n; V1 is the volume of dissolution medium in the dissolution cup; V2 is the volume of the sample removed at each time point; M is the total drug content.
The Phoenix WinNonlin IVIVC Toolkit provides Hill, Weibull, and Makoid Banakar functions to fit the average dissolution of each component in each dissolved medium. The best-fitting model was selected according to the highest correlation coefficient (R) and the smallest Akaike information criterion (AIC) value in the fitting results.
Hill:(4) Fdiss,vitro=Finf×t^b/MDT^b+t^b
Weibull:(5) Fdiss,vitro=Finf×(1−exp[−t−tlag/MDT]^b)
Makoid Banakar:(6) Fdiss,vitro=Fmax×(t/Tmax)^b×exp[b×(1−t/Tmax)] for t≤T_max (7) Fdiss,vitro=Fmax for t>Tmax where Fdiss,vitro is the fitting fraction dissolved at time t, Finf is the fraction dissolved at time infinity (fixed as 1), MDT is the average dissolution time (hours), Fmax is the maximum in vitro dissolution value, tlag is the lag time, Tmax is the time corresponding to the maximum in vitro dissolution value, and b is the shape parameters.

Data set [2] is described as follows: Stability of Q-markers in plasma. Also noted: species or system dog. The settings on record: n = 6. As for the experimental part:
The standard solutions of tetrahydropalmatine, corydaline, protopin, α-allocryptopine, and byakangelicin were prepared by dissolving them in acetonitrile to obtain a mixed standard stock solution, which was further diluted with acetonitrile to prepare a series of different concentration gradient mixed standard solutions. An internal standard solution of 25 ng/mL was prepared from betamethasone solution (500 μg/mL) diluted with acetonitrile. Blank dog blood was collected through intravenous blood sampling, and plasma was obtained by centrifugation. To prepare the standard plasma sample, 25 μL of the mixed standard solution was added to 100 μL of blank plasma, and 400 μL of acetonitrile was added and vortexed for protein precipitation. The supernatant was acquired by centrifugation and blown dry with nitrogen. Then, 100 μL of acetonitrile was added to the dried supernatant, and the resulting solution was mixed to gain the standard plasma sample. Different mixed standard solution including a serial of concentrations of tetrahydropalmatine: 0.625–25 ng/mL, corydaline: 0.625–25 ng/mL, protopin: 0.1–4 ng/mL, α-allocryptopine: 0.1–4 ng/mL, byakangelicin: 18.75–750 ng/mL were applied to prepare standard plasma sample and quality control (QC) samples of plasma as follows: 1.25, 5, and 20 ng/mL for tetrahydropalmatine and corydaline, […], and 37.5, 150, and 600 ng/mL for byakangelicin.

For data set [3] the following is noted: dog, in vivo.
From the text: The Phoenix WinNonlin IVIVC tool was utilized to evaluate the relationship between in vivo drug dissolution rate and blood drug concentration, which utilizes the Unit Impulse Response (UIR) function for this purpose. By using intravenous administration as the input for the unit impulse response, the influence of drug absorption can be eliminated. The obtained UIR function will be utilized for the deconvolution of pharmacokinetic data to obtain the curve of cumulative drug absorption over time [50]. (8) Y(t)=A×exp[Alpha×(t×Ka−tlag)] in which Y(t) is unit impulse response, A is the coefficient value, Alpha is the exponential value, Ka is the absorption rate constant, tlag is the lag time.
The conditions of data set [4]: dog, in vivo. This is another data set of the same source.
From the text: In order to further apply the identified in vivo correlated dissolution conditions to different batches of YZTs, another brand of YZTs was selected for external validation of the dissolution conditions and IVIVC model results. The dissolution data of different brands in the identified media were input into the established IVIVC model to obtain the predicted blood concentration–time curve and to compare the PE% between the predicted value and the actual value.
Data set [5] relates to Caco-2 cells.

`COc1c2ccoc2c(OC[C@@H](O)C(C)(C)O)c2oc(=O)ccc12` [Byakangelicin, byakangelicin]: in data set [1] (from YZTs, all other dissolution media than simulated gastric fluid and 0.1 M HCl, paddle 75 rpm), the released entry is “less than 40%”. Further, the Relative content in data set [2] (37.5 ng/mL, 6℃-6h) came to 90.02%; in data set [2] (37.5 ng/mL, 20℃-24h), 93.00%; in data set [2] (37.5 ng/mL, Freeze-thaw thrice), 92.93%; in data set [2] (150 ng/mL, 6℃-6h), 93.99%; in data set [2] (150 ng/mL, 20℃-24h) it was 93.39%; in data set [2] (150 ng/mL, Freeze-thaw thrice) it was 93.32%. Moreover, the Relative content in data set [2] (600 ng/mL, 6℃-6h) is reported as 88.54%; in data set [2] (600 ng/mL, 20℃-24h) it was 89.73%; in data set [2] (600 ng/mL, Freeze-thaw thrice), 89.66%.

Turning to `COc1cc2c(cc1OC)[C@H]1[C@@H](C)c3ccc(OC)c(OC)c3CN1CC2` [Corydaline, corydaline], the “Best-fitted dissolution model, Functions” value was “y(t) = 0.79 × (1 − exp[−(t/1.06)^2.00])” in data set [1] (0.1 M HCl), “y(t) = 0.71 × (1 − exp[−(t/1.23)^2.04])” in data set [1] (Acetate buffer), “y(t) = 0.15 × (1 − exp[−(t/3.14)^1.77])” in data set [1] (FaSSIF-V2) and “y(t) = 0.25 × (1 − exp[−(t/1.94)^2.82])” in data set [1] (Phosphate buffer). The Relative content in data set [2] (1.25 ng/mL, 6℃-6h) was determined as 98.22%; in data set [2] (1.25 ng/mL, 20℃-24h), 98.02%; in data set [2] (1.25 ng/mL, Freeze-thaw thrice) it was 97.95%; in data set [2] (5 ng/mL, 6℃-6h) it was 93.89%; in data set [2] (5 ng/mL, 20℃-24h), 102.35%; in data set [2] (5 ng/mL, Freeze-thaw thrice), 102.28%. Further, the Relative content in data set [2] (20 ng/mL, 6℃-6h) was determined as 107.01%; in data set [2] (20 ng/mL, 20℃-24h), 100.80%; in data set [2] (20 ng/mL, Freeze-thaw thrice) it was 100.73%.

`COc1cc2c(cc1OC)[C@@H]1Cc3ccc(OC)c(OC)c3CN1CC2` [Tetrahydropalmatine, tetrahydropalmatine]: the “Best-fitted dissolution model, Functions” value was “y(t) = 0.38 × (1 − exp[−(t/3.48)^1.91])” in data set [1] (FaSSIF-V2) and “y(t) = 0.30 × (1 − exp[−(t/2.29)^2.34])” in data set [1] (Phosphate buffer). Also, the Relative content in data set [2] (1.25 ng/mL, 6℃-6h) is given as 94.31%; in data set [2] (1.25 ng/mL, 20℃-24h), 100.16%; in data set [2] (1.25 ng/mL, Freeze-thaw thrice) it was 100.09%; in data set [2] (5 ng/mL, 6℃-6h), 99.79%; in data set [2] (5 ng/mL, 20℃-24h), 102.60%; in data set [2] (5 ng/mL, Freeze-thaw thrice), 102.53%. The Relative content in data set [2] (20 ng/mL, 6℃-6h) came out at 97.35%; in data set [2] (20 ng/mL, 20℃-24h), 100.19%; in data set [2] (20 ng/mL, Freeze-thaw thrice), 100.12%. Further, the “UIR parameter A1, Estimate” value in data set [3] (beagle) was 0.04 ng/mL. Also, the “UIR parameter Ka, Estimate” value in data set [3] (beagle) was 1.28 h⁻¹. In data set [3] (beagle), the “UIR parameter Tlag, Estimate” value is on record as 0.40 h. Besides, the “UIR parameter alpha1, Estimate” value in data set [3] (beagle) was 1.30 h⁻¹.

On to `COc1ccc2c(c1OC)CN(C)CCc1cc3c(cc1C(=O)C2)OCO3` [α-allocryptopine], for which the entries for the “Best-fitted dissolution model, Functions” value in data set [1] (Acetate buffer) and in data set [1] (Phosphate buffer) were “y(t) = 0.86 × (1 − exp[−(t/1.26)^1.97])” and “y(t) = 0.60 × (1 − exp[−(t/1.29)^1.78])”, respectively. In data set [1] (from YZTs, phosphate buffer and artificial intestinal fluid, paddle 75 rpm), the “released within 6 h” value was “less than 60%”. Besides, the Relative content in data set [2] (0.2 ng/mL, 6℃-6h) is 91.78%; in data set [2] (0.2 ng/mL, 20℃-24h), 100.07%; in data set [2] (0.2 ng/mL, Freeze-thaw thrice), 100.00%; in data set [2] (0.5 ng/mL, 6℃-6h) it was 100.95%; in data set [2] (0.5 ng/mL, 20℃-24h), 101.06%; in data set [2] (0.5 ng/mL, Freeze-thaw thrice), 100.99%. Moreover, the Relative content was 107.49% in data set [2] (3.2 ng/mL, 6℃-6h); 98.70% in data set [2] (3.2 ng/mL, 20℃-24h); 98.63% in data set [2] (3.2 ng/mL, Freeze-thaw thrice).

Take protopine: for the setting “pH 1.2”, the “Solubility, 0.1 M HCl” value is 4700 ± 384 µg/mL. Also, the “Solubility, Acetate Buffer” value (pH 4.5) was 5403 ± 378 µg/mL. In addition, where the note is “pH 6.8”, the “Solubility, Phosphate Buffer” value is 535 ± 17.2 µg/mL. The “Best-fitted dissolution model, Functions” value in data set [1] (0.1 M HCl) was “y(t) = 0.70 × (1 − exp[−(t/1.10)^2.06])”; in data set [1] (FaSSGF), “y(t) = 0.82 × (1 − exp[−t^1.01])”; in data set [1] (Phosphate buffer), “y(t) = 0.62 × (1 − exp[−(t/1.50)^1.63])”. The Relative content in data set [2] (0.2 ng/mL, 6℃-6h) came out at 99.33%; in data set [2] (0.2 ng/mL, 20℃-24h) it was 96.07%; in data set [2] (0.2 ng/mL, Freeze-thaw thrice) it was 96.00%; in data set [2] (0.5 ng/mL, 6℃-6h), 93.89%; in data set [2] (0.5 ng/mL, 20℃-24h) it was 100.60%; in data set [2] (0.5 ng/mL, Freeze-thaw thrice), 100.53%. Moreover, the Relative content is reported as 103.43% in data set [2] (3.2 ng/mL, 6℃-6h); 101.63% in data set [2] (3.2 ng/mL, 20℃-24h); 101.56% in data set [2] (3.2 ng/mL, Freeze-thaw thrice). Besides, the “Observed AUC” value in data set [4] is 205.15. Also, the “Observed Cmax” value in data set [4] turned out to be 1.15 ng/mL. The “Predicted AUC” value in data set [4] is 218.10. Moreover, the “Predicted Cmax” value in data set [4] was 1.26 ng/mL. Also, the “UIR parameter A1, Estimate” value in data set [3] was 0 ng/mL. Also, the “UIR parameter Ka, Estimate” value in data set [3] was 1.36 h⁻¹. Further, in data set [3], the “UIR parameter Tlag, Estimate” value is 0.44 h. Besides, the “UIR parameter alpha1, Estimate” value in data set [3] is 1.35 h⁻¹. In addition, in data set [5], the “In Vitro Caco-2 Cell Permeability (Peff)” value came out at 7.49 ± 0.0803 ×10⁻⁶ cm/s.
